Experiments:
[1] = target: T1, Abl (Homo sapiens, UniProt P00519); test: KinaseProfiler selectivity: Abl; type: biochemical
T1 construct: purchased Millipore Co. Ltd. (KinaseProfiler service)
Description: (§1) […]; The selectivity of JTE-052 for other kinases was assessed using KinaseProfiler™ (Millipore Co. Ltd.). […].

[2] = target: T2, Aurora-A (Homo sapiens, UniProt O14965); test: KinaseProfiler selectivity: Aurora-A; type: biochemical
T2 construct: purchased Millipore Co. Ltd. (KinaseProfiler service)
Description: as §1

[3] = target: T3, CDK1/cyclinB (Homo sapiens, UniProt P06493); test: KinaseProfiler selectivity: CDK1/cyclinB; type: biochemical
T3 construct: purchased Millipore Co. Ltd. (KinaseProfiler service)
Description: as §1

[4] = target: T4, CK2 (Homo sapiens, UniProt P68400); test: KinaseProfiler selectivity: CK2; type: biochemical
T4 construct: purchased Millipore Co. Ltd. (KinaseProfiler service)
Description: as §1

[5] = target: T5, c-RAF (Homo sapiens, UniProt P04049); test: KinaseProfiler selectivity: c-RAF; type: biochemical
T5 construct: purchased Millipore Co. Ltd. (KinaseProfiler service)
Description: as §1

[6] = target: T6, cSRC (Homo sapiens, UniProt P12931); test: KinaseProfiler selectivity: cSRC; type: biochemical
T6 construct: purchased Millipore Co. Ltd. (KinaseProfiler service)
Description: as §1

[7] = target: T7, FGFR1 (Homo sapiens, UniProt P11362); test: KinaseProfiler selectivity: FGFR1; type: biochemical
T7 construct: purchased Millipore Co. Ltd. (KinaseProfiler service)
Description: as §1

[8] = target: T8, Flt1 (Homo sapiens, UniProt P17948); test: KinaseProfiler selectivity: Flt1; type: biochemical
T8 construct: purchased Millipore Co. Ltd. (KinaseProfiler service)
Description: as §1

[9] = target: T9, Flt3 (Homo sapiens, UniProt P36888); test: KinaseProfiler selectivity: Flt3; type: biochemical
T9 construct: purchased Millipore Co. Ltd. (KinaseProfiler service)
Description: as §1

[10] = target: T10, IGF-1R (Homo sapiens, UniProt P08069); test: KinaseProfiler selectivity: IGF-1R; type: biochemical
T10 construct: purchased Millipore Co. Ltd. (KinaseProfiler service)
Description: as §1

[11] = target: T11, IKKβ (Homo sapiens, UniProt O14920); test: KinaseProfiler selectivity: IKKβ; type: biochemical
T11 construct: purchased Millipore Co. Ltd. (KinaseProfiler service)
Description: as §1

[12] = target: T12, JNK1α1 (Homo sapiens, UniProt P45983); test: KinaseProfiler selectivity: JNK1α1; type: biochemical
T12 construct: purchased Millipore Co. Ltd. (KinaseProfiler service)
Description: as §1

[13] = target: T13, KDR (Homo sapiens, UniProt P35968); test: KinaseProfiler selectivity: KDR; type: biochemical
T13 construct: purchased Millipore Co. Ltd. (KinaseProfiler service)
Description: as §1

[14] = target: T14, Lyn (Homo sapiens, UniProt P07948); test: KinaseProfiler selectivity: Lyn; type: biochemical
T14 construct: purchased Millipore Co. Ltd. (KinaseProfiler service)
Description: as §1

[15] = target: T15, MEK1 (Homo sapiens, UniProt Q02750); test: KinaseProfiler selectivity: MEK1; type: biochemical
T15 construct: purchased Millipore Co. Ltd. (KinaseProfiler service)
Description: as §1

[16] = target: T16, MSK1 (Homo sapiens, UniProt O75582); test: KinaseProfiler selectivity: MSK1; type: biochemical
T16 construct: purchased Millipore Co. Ltd. (KinaseProfiler service)
Description: as §1

[17] = target: T17, PDGFRβ (Homo sapiens, UniProt P09619); test: KinaseProfiler selectivity: PDGFRβ; type: biochemical
T17 construct: purchased Millipore Co. Ltd. (KinaseProfiler service)
Description: as §1

[18] = target: T18, PKA (Homo sapiens, UniProt P17612); test: KinaseProfiler selectivity: PKA; type: biochemical
T18 construct: purchased Millipore Co. Ltd. (KinaseProfiler service)
Description: as §1

[19] = target: T19, PKCα (Homo sapiens, UniProt P17252); test: KinaseProfiler selectivity: PKCα; type: biochemical
T19 construct: purchased Millipore Co. Ltd. (KinaseProfiler service)
Description: as §1

[20] = target: T20, Plk1 (Homo sapiens, UniProt P53350); test: KinaseProfiler selectivity: Plk1; type: biochemical
T20 construct: purchased Millipore Co. Ltd. (KinaseProfiler service)
Description: as §1

[21] = target: T21, SAPK2b (Homo sapiens, UniProt Q15759); test: KinaseProfiler selectivity: SAPK2b; type: biochemical
T21 construct: purchased Millipore Co. Ltd. (KinaseProfiler service)
Description: as §1

[22] = target: T22, SAPK3 (Homo sapiens, UniProt P53778); test: KinaseProfiler selectivity: SAPK3; type: biochemical
T22 construct: purchased Millipore Co. Ltd. (KinaseProfiler service)
Description: as §1

[23] = target: T23, SGK (Homo sapiens, UniProt O00141); test: KinaseProfiler selectivity: SGK; type: biochemical
T23 construct: purchased Millipore Co. Ltd. (KinaseProfiler service)
Description: as §1

[24] = system: GM-CSF signaling (JAK2/JAK2), Stat5 phosphorylation in hPBMCs; test: cells; settings: Homo sapiens, 0.25 h, read-out: IC50, GM-CSF cytokine signaling (JAK2/JAK2)
Description: (§2) hPBMCs (3 × 10^6 cells/tube) were incubated with a test compound for 30 min at 37 °C, and then treated with IL-2 (100 ng/mL), IL-6 (100 ng/mL), IL-23 (100 ng/mL), IFN-α (100 ng/mL), or GM-CSF (1 ng/mL) for an additional 15 min. To terminate the stimulation, the cells were fixed with Fixation Buffer (BD Biosciences) for 10 min at 37 °C. The fixed cells were incubated with Perm Buffer II (BD Biosciences) for 30 min on ice and then incubated with fluorochrome-labeled anti-CD3, anti-CD4, or anti-phospho-Stat antibodies for 30 min at room temperature. The cytokine-induced Stat phosphorylation was analyzed and quantified using a Cytomics FC500 (Beckman Coulter Inc., Brea, CA). In the case of IL-23 stimulation, hPBMCs were precultured with 10 μg/mL phytohemagglutinin (PHA)-M (Sigma-Aldrich Co.) for 3 days to enhance their response to IL-23.
(§3) The phosphorylation levels of Stat5 (IL-2 and GM-CSF), Stat3 (IL-6 and IL-23), or Stat1 (IFN-α) in CD3^+CD4^+ cells (IL-2, IL-23, and IFN-α) or CD3^-CD4^+ cells (IL-6 and GM-CSF) were analyzed by flow cytometry. Data are presented as percentages of mean fluorescence intensity relative to vehicle (100 %) and non-stimulated control cells (0 %). Values are mean ± SEM. Three independent experiments were performed

[25] = system: IFN-α signaling (JAK1/Tyk2), Stat1 phosphorylation in hPBMCs; test: cells; settings: Homo sapiens, 0.25 h, read-out: IC50, IFN-α cytokine signaling (JAK1/Tyk2)
Description: as §2, §3

[26] = system: IL-2 signaling (JAK1/JAK3), Stat5 phosphorylation in hPBMCs; test: cells; settings: Homo sapiens, 0.25 h, read-out: IC50, IL-2 cytokine signaling (JAK1/JAK3)
Description: as §2, §3

[27] = system: IL-23 signaling (JAK2/Tyk2), Stat3 phosphorylation in hPBMCs; test: cells; settings: Homo sapiens, 0.25 h, read-out: IC50, IL-23 cytokine signaling (JAK2/Tyk2)
Description: as §2, §3

[28] = system: IL-6 signaling (JAK1/JAK2), Stat3 phosphorylation in hPBMCs; test: cells; settings: Homo sapiens, 0.25 h, read-out: IC50, IL-6 cytokine signaling (JAK1/JAK2)
Description: as §2, §3

[29] = system: human mast cells; settings: Mast cell, read-out: IC50, IL-4 priming of Fcε receptor-dependent TNF-α production in mast cells
Description: The cells were then replated at 1.2 × 10^5 cells/well and cultured with 1 μg/mL anti-IgE for an additional 5 h at 37 °C. The supernatants were collected, and secretion of TNF-α was measured by ELISA.

T17 sequence (P09619 33-1106, species assumed): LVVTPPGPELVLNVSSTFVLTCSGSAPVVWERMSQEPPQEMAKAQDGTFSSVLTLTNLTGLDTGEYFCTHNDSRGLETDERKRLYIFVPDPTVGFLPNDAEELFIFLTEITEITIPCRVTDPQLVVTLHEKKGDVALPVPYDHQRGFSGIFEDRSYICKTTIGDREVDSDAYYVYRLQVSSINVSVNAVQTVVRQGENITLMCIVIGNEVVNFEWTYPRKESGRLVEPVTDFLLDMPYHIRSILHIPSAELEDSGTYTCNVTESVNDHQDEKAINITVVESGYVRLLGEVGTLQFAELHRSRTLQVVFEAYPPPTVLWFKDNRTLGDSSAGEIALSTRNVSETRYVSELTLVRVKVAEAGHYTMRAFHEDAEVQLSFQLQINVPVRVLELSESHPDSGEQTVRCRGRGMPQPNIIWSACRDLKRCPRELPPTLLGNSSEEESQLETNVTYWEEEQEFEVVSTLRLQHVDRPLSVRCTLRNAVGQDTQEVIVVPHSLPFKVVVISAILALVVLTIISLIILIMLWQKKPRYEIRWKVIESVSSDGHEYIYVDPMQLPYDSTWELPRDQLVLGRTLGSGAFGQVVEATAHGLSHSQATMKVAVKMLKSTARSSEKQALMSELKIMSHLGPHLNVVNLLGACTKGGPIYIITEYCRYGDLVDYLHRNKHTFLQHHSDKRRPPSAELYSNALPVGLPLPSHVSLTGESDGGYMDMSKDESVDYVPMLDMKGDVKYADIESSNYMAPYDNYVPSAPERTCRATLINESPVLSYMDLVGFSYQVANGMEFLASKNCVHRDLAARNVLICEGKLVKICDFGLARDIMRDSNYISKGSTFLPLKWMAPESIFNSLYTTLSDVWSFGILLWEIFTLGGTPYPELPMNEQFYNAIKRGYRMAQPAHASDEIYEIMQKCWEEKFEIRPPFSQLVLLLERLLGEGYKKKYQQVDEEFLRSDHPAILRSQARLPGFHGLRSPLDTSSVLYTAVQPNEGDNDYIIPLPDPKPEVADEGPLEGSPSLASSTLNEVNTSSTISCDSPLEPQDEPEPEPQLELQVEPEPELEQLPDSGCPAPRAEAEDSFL
T2 sequence (O14965 whole entry): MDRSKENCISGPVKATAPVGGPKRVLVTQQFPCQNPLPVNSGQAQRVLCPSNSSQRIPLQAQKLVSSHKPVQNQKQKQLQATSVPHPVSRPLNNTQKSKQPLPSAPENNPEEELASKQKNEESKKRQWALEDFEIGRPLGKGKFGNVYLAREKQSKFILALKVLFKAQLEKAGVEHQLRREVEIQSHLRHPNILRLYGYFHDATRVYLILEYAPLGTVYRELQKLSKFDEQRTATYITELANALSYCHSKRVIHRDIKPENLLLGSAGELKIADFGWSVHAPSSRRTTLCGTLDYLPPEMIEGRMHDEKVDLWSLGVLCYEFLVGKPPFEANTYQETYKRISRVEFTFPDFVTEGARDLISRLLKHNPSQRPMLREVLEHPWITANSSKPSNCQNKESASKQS
T14 sequence (P07948 whole entry, species assumed): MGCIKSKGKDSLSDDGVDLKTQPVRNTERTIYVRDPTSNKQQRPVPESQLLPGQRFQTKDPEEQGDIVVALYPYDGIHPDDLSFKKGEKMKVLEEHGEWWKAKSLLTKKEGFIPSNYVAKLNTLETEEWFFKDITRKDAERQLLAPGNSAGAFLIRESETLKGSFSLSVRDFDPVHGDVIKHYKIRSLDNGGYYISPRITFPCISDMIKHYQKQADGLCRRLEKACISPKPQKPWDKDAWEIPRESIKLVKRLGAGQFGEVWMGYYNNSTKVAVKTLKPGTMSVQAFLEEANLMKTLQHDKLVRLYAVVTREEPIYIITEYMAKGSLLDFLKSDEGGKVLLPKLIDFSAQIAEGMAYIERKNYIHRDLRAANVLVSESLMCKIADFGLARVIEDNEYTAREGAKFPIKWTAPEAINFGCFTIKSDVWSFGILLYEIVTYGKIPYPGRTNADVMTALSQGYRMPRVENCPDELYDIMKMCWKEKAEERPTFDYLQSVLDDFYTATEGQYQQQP
T12 sequence (P45983 1-384 isoform P45983-2, species assumed): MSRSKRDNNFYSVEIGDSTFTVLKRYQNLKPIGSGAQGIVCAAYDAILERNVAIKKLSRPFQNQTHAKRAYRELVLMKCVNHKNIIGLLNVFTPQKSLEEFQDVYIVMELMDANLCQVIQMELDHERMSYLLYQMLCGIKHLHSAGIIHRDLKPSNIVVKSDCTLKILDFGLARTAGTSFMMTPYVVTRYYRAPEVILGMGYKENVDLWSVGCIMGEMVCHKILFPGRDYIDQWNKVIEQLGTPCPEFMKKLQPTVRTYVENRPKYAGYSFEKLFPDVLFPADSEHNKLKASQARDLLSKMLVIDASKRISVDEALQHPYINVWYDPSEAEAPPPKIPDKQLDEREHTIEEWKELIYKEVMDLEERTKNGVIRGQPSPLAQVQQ
T22 sequence (P53778 whole entry, species assumed): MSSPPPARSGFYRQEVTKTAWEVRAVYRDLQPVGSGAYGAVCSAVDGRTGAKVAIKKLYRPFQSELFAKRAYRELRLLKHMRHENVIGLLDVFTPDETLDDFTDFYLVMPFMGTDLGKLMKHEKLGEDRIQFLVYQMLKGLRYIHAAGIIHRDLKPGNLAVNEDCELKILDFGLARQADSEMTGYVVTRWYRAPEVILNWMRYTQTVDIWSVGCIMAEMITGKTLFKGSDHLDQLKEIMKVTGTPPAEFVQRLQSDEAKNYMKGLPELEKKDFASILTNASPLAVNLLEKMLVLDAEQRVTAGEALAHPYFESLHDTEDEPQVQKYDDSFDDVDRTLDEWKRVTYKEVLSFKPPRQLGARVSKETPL
T7 sequence (P11362 22-822, species assumed): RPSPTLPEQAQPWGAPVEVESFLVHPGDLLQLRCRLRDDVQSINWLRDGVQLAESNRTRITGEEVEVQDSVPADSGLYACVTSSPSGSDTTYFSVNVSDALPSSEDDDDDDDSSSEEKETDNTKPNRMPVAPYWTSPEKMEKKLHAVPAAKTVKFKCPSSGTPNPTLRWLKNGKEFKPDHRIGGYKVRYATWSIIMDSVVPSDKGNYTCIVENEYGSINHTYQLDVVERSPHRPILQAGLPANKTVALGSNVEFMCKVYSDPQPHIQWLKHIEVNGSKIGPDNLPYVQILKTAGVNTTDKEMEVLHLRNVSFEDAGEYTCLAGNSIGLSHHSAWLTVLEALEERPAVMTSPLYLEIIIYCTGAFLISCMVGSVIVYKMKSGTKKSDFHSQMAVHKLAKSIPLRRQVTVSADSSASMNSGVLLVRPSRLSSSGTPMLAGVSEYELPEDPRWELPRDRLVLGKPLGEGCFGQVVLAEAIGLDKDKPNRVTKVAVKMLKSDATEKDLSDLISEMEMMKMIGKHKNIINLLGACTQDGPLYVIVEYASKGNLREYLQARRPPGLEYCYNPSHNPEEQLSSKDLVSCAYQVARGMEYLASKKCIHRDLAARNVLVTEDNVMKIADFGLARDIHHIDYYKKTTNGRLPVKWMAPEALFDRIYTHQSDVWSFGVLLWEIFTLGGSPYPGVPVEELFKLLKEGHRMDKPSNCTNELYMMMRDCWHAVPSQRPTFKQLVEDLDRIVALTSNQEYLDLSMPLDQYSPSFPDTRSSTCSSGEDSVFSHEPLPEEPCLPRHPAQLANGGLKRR
T6 sequence (P12931 whole entry, species assumed): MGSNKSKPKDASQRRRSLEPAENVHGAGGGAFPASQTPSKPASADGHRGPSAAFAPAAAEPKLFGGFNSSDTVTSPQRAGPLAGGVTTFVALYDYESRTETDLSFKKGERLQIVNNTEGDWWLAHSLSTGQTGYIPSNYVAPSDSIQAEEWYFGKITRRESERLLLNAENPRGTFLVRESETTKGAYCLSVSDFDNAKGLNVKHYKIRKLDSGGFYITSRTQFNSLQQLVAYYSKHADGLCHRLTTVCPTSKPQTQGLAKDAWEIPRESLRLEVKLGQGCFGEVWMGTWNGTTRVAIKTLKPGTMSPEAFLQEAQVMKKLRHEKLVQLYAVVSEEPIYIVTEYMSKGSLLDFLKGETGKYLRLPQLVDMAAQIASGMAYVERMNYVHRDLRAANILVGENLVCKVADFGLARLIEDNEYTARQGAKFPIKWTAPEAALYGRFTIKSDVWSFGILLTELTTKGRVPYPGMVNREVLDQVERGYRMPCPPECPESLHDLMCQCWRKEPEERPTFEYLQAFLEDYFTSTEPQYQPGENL

C[C@H]1CN(C(=O)CC#N)[C@]12CCN(c1ncnc3[nH]ccc13)C2 [JTE-052]
IC50 [1]: > 1 µM | IC50 [2]: > 1 µM | IC50 [3]: > 1 µM | IC50 [4]: > 1 µM | IC50 [5]: > 1 µM | IC50 [6]: > 1 µM | IC50 [7]: > 1 µM | IC50 [8]: > 1 µM | IC50 [9]: > 1 µM | IC50 [10]: > 1 µM | IC50 [11]: > 1 µM | IC50 [12]: > 1 µM | IC50 [13]: > 1 µM | IC50 [14]: > 1 µM | IC50 [15]: > 1 µM | IC50 [16]: > 1 µM | IC50 [17]: > 1 µM | IC50 [18]: > 1 µM | IC50 [19]: > 1 µM | IC50 [20]: > 1 µM | IC50 [21]: > 1 µM | IC50 [22]: > 1 µM | IC50 [23]: > 1 µM | IC50 [24]: 0.304 ± 0.022 µM | IC50 [25]: 0.018 ± 0.003 µM | IC50 [26]: 0.04 ± 0.009 µM | IC50 [27]: 0.084 ± 0.011 µM | IC50 [28]: 0.033 ± 0.014 µM | IC50 [29]: 0.133 ± 0.018 µM

Source: article PMC4286029 (Inflammation Research, 2014)
